Converted amounts (≈) assume the structure as drawn. Like-named read-outs stand apart in the source and are kept apart here.
Columns and labels:
Format in all cases: physicochemical
[1] = Solubility and stability of aspacytarabine free base and acid salt in aqueous media
Source text: Thus, there is an unmet need for a stable and highly concentrated solutions and/or high dosage composition comprising aspacytarabine.

[2] = Solubility and stability of aspacytarabine hydrochloride salt in 3% aqueous solutions of stabilizers/solubilizers after 24 hours (Table 2)
Description: In another study, aspacytarabine hydrochloride salt was added to 3% aqueous solution of different stabilizers/solubilizers (See Table 2) at pH˜5.

[3] = Solubility of aspacytarabine in different solubilizers/stabilizers (Table 1, FIG. 1); conditions: thermodynamic from solid, read-out: Conc (solubility of aspacytarabine); for solubility at 24 h: after 24 hours, room temperature
Description: FIG. 1 depicts solubility (mg/ml) of aspacytarabine with (i) Tween 20, 1% (non-linear polymer); (ii) PEG 400 (neat); (iii) an aqueous solution including 1% w/w poloxamer; (iv) an aqueous solution including 2% w/w poloxamer; and (v) an aqueous solution including 1% w/w poloxamer and 5% w/w PVP, where “P188” is poloxamer 188 and “PVP” is polyvinylpyrrolidone. The solubility was measured after 24 hours in room temperature at pH 4.5.
Aspacytarabine or its hydrochloride salt was stirred with various ingredients in various conditions (separate experiment for each component/condition) in order to prepare compositions thereof. […] Among components tested were organic solvents (e.g. glycerol, ethanol, polyethylene glycol (PEG, e.g. PEG 400), dimethylacetamide and propylene glycol) and polymers (e.g. Polyoxyethylated 12-hydroxystearic acid, Polyethylene glycol, sorbitan monolaurate, polyvinylpyrrolidone (PVP), triblock copolymer of polyethylene/propylene oxide (poloxamer) and cyclodextrin and/or derivatives thereof). […] See comparative results in FIG. 1 and Table 1:
Compositions 1, 2a-2d, 3 as described in Example 2 were dissolved in an aqueous solution at room temperature. Composition 4 is aspacytarabine in neat PEG 400.

[4] = hydrochloride salt in 3% aqueous PVP 10 kDa + PEG 300, pH~5, room temperature
[5] = hydrochloride salt in 3% aqueous Poloxamer 188 + PEG 300, pH~5, room temperature
[6] = hydrochloride salt in 3% aqueous Poloxamer 188, pH~5, room temperature
[7] = hydrochloride salt, control without stabilizers and/or solubilizer, pH~5, room temperature

solubility in aqueous media [1]: low solubility
Concentration after 24 h [2, 4]: 91600 ± 8400 µg/mL
Initial appearance [2, 4]: Clear
Initial concentration [2, 4]: 87.1 ± 0.0 mg/mL
Appearance after 24 h [2, 5]: Clear
Concentration after 24 h [2, 5]: 80600 ± 2200 µg/mL
Initial appearance [2, 5]: Clear
Initial concentration [2, 5]: 87.3 ± 0.4 mg/mL
Appearance after 24 h [2, 6]: Clear
Concentration after 24 h [2, 6]: 81800 ± 3200 µg/mL
Initial appearance [2, 6]: Clear
Initial concentration [2, 6]: 87.3 ± 0.2 mg/mL
Concentration after 24 h [2, 7]: 17200 ± 400 µg/mL
Initial appearance [2, 7]: Clear
Initial concentration [2, 7]: 86.6 ± 1.1 mg/mL
solubility at 24 h ([3]; 1% Tween 20, aqueous with cosolvent or surfactant or cyclodextrin, solubilizer/stabilizer Tween 20 (1%, non-linear polymer), pH 4.5): 14.3 mg/mL (≈ 40 mM)
solubility ([3]; Kolliphor ELP as solubilizer/stabilizer, aqueous with cosolvent or surfactant or cyclodextrin, solubilizer/stabilizer Kolliphor ELP): 17.8 mg/mL (≈ 49.7 mM)
solubility ([3]; Solutol HS15 as solubilizer/stabilizer, aqueous with cosolvent or surfactant or cyclodextrin, solubilizer/stabilizer Solutol HS15): 16.1 mg/mL (≈ 45.1 mM)
solubility at 24 h ([3]; aqueous solution with 1% w/w poloxamer 188, aqueous with cosolvent or surfactant or cyclodextrin, solubilizer/stabilizer Poloxamer 1% w/w aqueous solution, pH 4.5): 95.3 mg/mL (≈ 266 mM)
solubility at 24 h ([3]; aqueous solution with 1% w/w poloxamer 188 and 5% w/w PVP, aqueous with cosolvent or surfactant or cyclodextrin, solubilizer/stabilizer Poloxamer 1% + 5% PVP aqueous solution, pH 4.5): 90.9 mg/mL
solubility at 24 h ([3]; aqueous solution with 2% w/w poloxamer 188, aqueous with cosolvent or surfactant or cyclodextrin, solubilizer/stabilizer Poloxamer 2% w/w aqueous solution, pH 4.5): 94.9 mg/mL (≈ 265 mM)
solubility at 24 h ([3]; neat PEG 400, pH 4.5, organic solvent or mixture, solubilizer/stabilizer PEG400 (neat)): 50.5 mg/mL (≈ 141 mM)
Compound: N[C@@H](CC(=O)Nc1ccn([C@@H]2O[C@H](CO)[C@@H](O)[C@@H]2O)c(=O)n1)C(=O)O [aspacytarabine, (S)-2-amino-4-((1-((2R,3S,4S,5R)-3,4-dihydroxy-5-(hydroxymethyl)tetrahydrofuran-2-yl)-2-oxo-1,2-dihydropyrimidin-4-yl)amino)-4-oxobutanoic acid]
